Entries after “also recorded” stand apart in the source; their conditions may differ. Primed or numbered codes have the meaning given here. Where no end group is shown, it is not given here. [ ]: non-standard residue; d: D form. PEG6′ = Peg: PEG6 in place of glycine
What was measured:
[1] = tested on: human intestinal Caco2-BBE (C2) cells; test: 14C-oxalate influx (oxalate transport) by Caco2-BBE (C2) cells; assay type: cell-based; settings: for effect of trace element added to P8 or P9 on oxalate transport, in words: C2 cells, versus peptide alone
Procedure: Toward this end, Of culture conditioned medium (CM) was prepared as recently reported (Ref. 4; herein incorporated by reference in its entirety) and human intestinal Caco2-BBE (C2) cells were used to evaluate the effects of Of CM on intestinal oxalate transport. Apical oxalate uptake by C2 cells was measured by imposing an outward Cl gradient by removing extracellular Cl [Cli>Clo] (Refs. 3, 4, 14; incorporated by reference in their entireties) and measuring DIDS (anion exchange inhibitor)-sensitive influx of 14C-oxalate in exchange for intracellular Cl [i.e. apical Cl-oxalate exchange activity, ≥49% of which is mediated by the oxalate transporter SLC26A6 (A6) in C2 cells (4, 12))].
The inventors sought to identify trace elements to better stimulate oxalate transport by facilitating the binding of P8 and/or P9 to a cell surface receptor. The inventors analyzed combinations of P8 and P9 alone or with aluminum, zinc, or magnesium by measuring C14 oxalate transport in C2 cells.

[2] = tested on: human sigmoid colon organoid; test: oxalate transport by human sigmoid colon organoid; assay type: cell-based
Procedure: (§1) Although the transformed C2 cells resemble the native epithelium, they don't fully recapitulate the in vivo physiological responses. Primary stem-cell derived intestinal organoids (Orgs) were recently established as an ex vivo model of the intestinal epithelium, and they mimic the full spectrum of physiological responses in vivo. Therefore, experiments were conducted during development of embodiments herein to confirm the C2 findings in colonic organoids.
(§2) To recapitulate the findings in vivo, primary stem-cell derived intestinal organoids (Org) were used which have been established as an ex vivo model of the intestinal epithelium with a full spectrum of physiological responses found in vivo (Ref. 35; incorporated by reference in its entirety). A human sigmoid colonic Org (from a healthy individual) was grown and maintained as previously reported (Ref. 34; incorporated by reference in its entirety). Org cells were plated onto collagen-coated transwell filters and formed monolayers. Monolayer confluency and differentiation was confirmed by transepithelial electrical resistance measurements (Ref. 34; incorporated by reference in its entirety).

[3] = tested on: human distal colon organoid; test: oxalate transport by human distal colon organoid; assay type: cell-based
Procedure: as §1, §2

[4] = tested on: human intestinal Caco2-BBE (C2) cells; settings: cited from earlier work; for stimulation of oxalate transport by cells (Sel1 proteins), in words: PCT/US18/14494
human ileum organoid = test: oxalate transport by human ileum organoid; assay type: cell-based; settings: 500 μM DIDS; ileum Org

AKAQY(Peg)L(Peg)ILYAK(Peg)Q(Peg)VAPDQEKALILYRMAATQ(Peg) (AKAQY[PEG6′]L[PEG6′]ILYAK[PEG6′]Q[PEG6′]VAPDQEKALILYRMAATQ[PEG6′]) [Peptide P9-Peg]
stimulation of oxalate transport (14C-oxalate influx) by C2 cells, in words ([1]; Caco2-BBE cells, listed as P9 with all glycines replaced with PEG6): similarly stimulated; also recorded: significantly stimulate

DAQYMLGAMSVEGI(d-alanine)LPKDSQVALTWLSKAAAQGD (DAQYMLGAMSVEGI[dA]LPKDSQVALTWLSKAAAQGD) [Peptide P8-Daa]
stimulation of oxalate transport (14C-oxalate influx) by C2 cells, in words ([1]; Caco2-BBE cells, listed as P8 with G15 replaced with D-alanine): similarly stimulated; also recorded: significantly stimulate

DAQYMLGAMSVEGIGLPKDSQVALTWLSKAAAQGD-Am (DAQYMLGAMSVEGIGLPKDSQVALTWLSKAAAQGD-NH2) [Peptide P8-Am]
stimulation of oxalate transport (14C-oxalate influx) by C2 cells, in words ([1]; Caco2-BBE cells, listed as P8 with C-terminal amidation): significantly stimulate

DAQYMLA(Peg)MSVE(Peg)I(Peg)LPKDSQVALTWLSKAAAQ(Peg)D (DAQYMLA[PEG6′]MSVE[PEG6′]I[PEG6′]LPKDSQVALTWLSKAAAQ[PEG6′]D) [Peptide P8-Peg]
stimulation of oxalate transport (14C-oxalate influx) by C2 cells, in words ([1]; Caco2-BBE cells, listed as P8 with all glycines replaced with PEG6): similarly stimulated; also recorded: significantly stimulate

AKAQYGLGILYAKGQ(d-alanine)VAPDQEKALILYRMAATQG (AKAQYGLGILYAKGQ[dA]VAPDQEKALILYRMAATQG) [Peptide P9-Daa]
stimulation of oxalate transport (14C-oxalate influx) by C2 cells, in words ([1]; Caco2-BBE cells, listed as P9 with G16 replaced with D-alanine): similarly stimulated; also recorded: significantly stimulate | stimulation of oxalate transport by sigmoid colon organoid, in words [2]: significantly stimulate | stimulation of oxalate transport by distal colon organoid, in words [3]: significantly stimulate

[Al] [aluminum]
effect of trace element added to P8 or P9 on oxalate transport, in words [1]: did not result in increased oxalate transport

QSQYNLGIAYEEGWGAEKNPENAVFWYRKAAEQGH [Peptide P4]
stimulation of oxalate transport (14C-oxalate influx) by C2 cells ([1]; Caco2-BBE cells): 1.5 fold

AKAQYGLGILYAKGQGVAPDQEKALILYRMAATQG-Am (AKAQYGLGILYAKGQGVAPDQEKALILYRMAATQG-NH2) [Peptide P9-Am]
stimulation of oxalate transport (14C-oxalate influx) by C2 cells, in words ([1]; Caco2-BBE cells, listed as P9 with C-terminal amidation): significantly stimulate | stimulation of oxalate transport by sigmoid colon organoid, in words [2]: significantly stimulate | stimulation of oxalate transport by distal colon organoid, in words [3]: significantly stimulate

Ac-AKAQYGLGILYAKGQGVAPDQEKALILYRMAATQG [Peptide P9-Ac]
stimulation of oxalate transport (14C-oxalate influx) by C2 cells, in words ([1]; Caco2-BBE cells, listed as P9 with N-terminal acetylation): significantly stimulate | stimulation of oxalate transport by sigmoid colon organoid, in words [2]: significantly stimulate | stimulation of oxalate transport by distal colon organoid, in words [3]: significantly stimulate

Ac-DAQYMLGAMSVEGIGLPKDSQVALTWLSKAAAQGD [Peptide P8-Ac]
stimulation of oxalate transport (14C-oxalate influx) by C2 cells, in words ([1]; Caco2-BBE cells, listed as P8 with N-terminal acetylation): significantly stimulate

O=S(=O)(NCCNC/C=C/c1ccc(Br)cc1)c1cccc2cnccc12 [Peptide H89, H89, reference compound]
effect of pretreatment on CM-induced oxalate transport ([4]; PKA inhibitor pretreatment, Ref. 4): completely blocked

ESQNNLGALYNDGNGVDRDYQEAVFWYRKSALQGD [Peptide P6]
stimulation of oxalate transport (14C-oxalate influx) by C2 cells, in words ([1]; Caco2-BBE cells): no effects

ARAQFNLGKTFYIGAGINKNTDKAVYWFIKAANQG [Peptide P5]
stimulation of oxalate transport (14C-oxalate influx) by C2 cells, in words ([1]; Caco2-BBE cells): no effects

O=S(=O)(O)c1cc(N=C=S)ccc1C=Cc1ccc(N=C=S)cc1S(=O)(=O)O [DIDS, reference compound]
inhibition of oxalate transport (human ileum organoid): ~80% | inhibition of 14C-oxalate influx ([2]; 100 μM DIDS, sigmoid colonic Org): ~70%

[Cl-].[Cl-].[Zn+2] [zinc chloride]
effect of trace element added to P8 or P9 on oxalate transport, in words [1]: not

B1: 318: Sel1 protein 318 (52 kDa) of Oxalobacter formigenes (protein)
chain: MKRRVLYGVLFAVLAGCSAGALASVSGLSDGLAQLERRQFESAYATLMPEAEKGNPRAALEVGKLLLTGRGVAKDEAAAVKWLLVAADSGNRDAQYMLGAMSVEGIGLPKDSQVALTWLSKAAAQGDARAKTALGILMQSAGPGSQHTEQAARWFERAAASGEPEAQRRWALMLASGRGVAKNEGEALKWFKKAAVAGDVEAQRNLGIMLSTGKGVTGGKPDFAEAARWYGLAAKKGDAKAQYGLGILYAKGQGVAPDQEKALILYRMAATQGLATAEYAVGLAYAYGRGTAQNDVKAADWFEAAAQQGVVRAQYNLALMLEAGRGRPVDTVAASKWFLMAAEKGLREAQYNMGYHYAEGKGVPRDQGKAVFWYEKAAAAGDVKAQYNLGMLYLNGVNGKADDEKAAFFYRMAAGAGYGPAMYRLAVLYEEGRGVKQSYQLAGEWYERADLAAKVKIDEAMKKNPHPFVQRTLQVPDDLNQSSDKLAGH
stimulation of oxalate transport by cells (Sel1 proteins), in words [4]: significantly stimulating; also recorded: most potent stimulators

B2: 301: Sel1 protein 301 (54 kDa) of Oxalobacter formigenes (protein)
chain: MSSVIADSQQPAVSEENANKIILDEEKAVIQCNERYKTENDEKGDEETVSWCRKAAKSGNAEAQYLFGMLVYDGRGVQQDNCVAMLWWMKAAEQNHAKALVMLGNLHRKGQCIAENYPKAIAYWKRAAVQNNVWAYHNLGTAYYDGIGVDKNPHEAVRWWKKAAELGFPESQNNLGALYNDGNGVDRDYQEAVFWYRKSALQGDELGQYNLGVAYYYGRGIKKDFSEAVSWYKKSAEQDYAQAQHNLGVTYYEGEGIKKDYAKAVYWWKKAAEQGIPQSQYNLGIAYEEGWGAEKNPENAVFWYRKAAEQGHADAQNRLGIAYRYGTGVRKNPALSVKWLEKAAKQGLARAQFNLGKTFYIGAGINKNTDKAVYWFIKAANQGFTEAQAYIGMIYFKGKYVAKNEKKGFYWLKKAAEKDSAKAQAFLGALYIAGNEVKPNIKEGVALTKKAALQGNYEAQTLLGFCYENGLEVKKDLIAAYALYLSASPHFDFAEKARLDLERKLSEQEIAKAISVNTAKLFE
stimulation of oxalate transport by cells (Sel1 proteins), in words [4]: significantly stimulating; also recorded: most potent stimulators

— patent US12016899B2, “Compositions comprising Sel1-derived peptides and methods of treatment/prevention of excess oxalate levels and associated conditions/diseases therewith” (The University of Chicago, priority 2018, dated 2024)
